This passage reports IC50 and inhibition results from ChEMBL document CHEMBL3779888, “Discovery of novel 2-phenyl-imidazo[1,2-a]pyridine analogues targeting tubulin polymerization as antiproliferative agents” (Eur J Med Chem, 2016).

One test deals with HeLa. Kind of test: Cytotoxicity against human HeLa cells after 3 days by SRB assay. The format is functional, cell-based. As to conditions: 72 h. Background: Sulforhodamine B stains cellular protein and so reports cell mass.
In the next test the target is Tubulin (Sus scrofa, UniProt P02554+P02550). Kind of test: Inhibition of porcine tubulin polymerization by UV-Vis microplate reader analysis. The format is protein assay.
For a further test, the target named is Tubulin (Sus scrofa) (UniProt P02554+P02550). Kind of test: Displacement of [3H]-colchicine from porcine tubulin at 20 uM preincubated for 1 hr followed by radioligand addition measured after 30 mins by DE81 filter-based scintillation spectrometric assay. The format is protein assay.
Chain of Tubulin (Sus scrofa) (P02550 whole entry, looked up): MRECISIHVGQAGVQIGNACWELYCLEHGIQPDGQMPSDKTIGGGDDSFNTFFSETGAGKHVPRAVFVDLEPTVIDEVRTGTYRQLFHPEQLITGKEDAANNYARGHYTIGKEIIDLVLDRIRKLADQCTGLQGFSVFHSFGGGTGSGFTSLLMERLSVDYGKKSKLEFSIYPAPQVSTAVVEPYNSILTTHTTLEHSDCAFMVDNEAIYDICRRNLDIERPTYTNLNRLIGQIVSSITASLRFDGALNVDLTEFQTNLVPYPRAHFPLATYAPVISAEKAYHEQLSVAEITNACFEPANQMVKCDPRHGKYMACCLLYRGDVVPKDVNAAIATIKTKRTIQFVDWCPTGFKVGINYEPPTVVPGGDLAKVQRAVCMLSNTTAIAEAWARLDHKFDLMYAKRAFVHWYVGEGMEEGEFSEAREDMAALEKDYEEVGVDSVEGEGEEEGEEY
Chain of Tubulin (Sus scrofa) (P02554 whole entry, looked up): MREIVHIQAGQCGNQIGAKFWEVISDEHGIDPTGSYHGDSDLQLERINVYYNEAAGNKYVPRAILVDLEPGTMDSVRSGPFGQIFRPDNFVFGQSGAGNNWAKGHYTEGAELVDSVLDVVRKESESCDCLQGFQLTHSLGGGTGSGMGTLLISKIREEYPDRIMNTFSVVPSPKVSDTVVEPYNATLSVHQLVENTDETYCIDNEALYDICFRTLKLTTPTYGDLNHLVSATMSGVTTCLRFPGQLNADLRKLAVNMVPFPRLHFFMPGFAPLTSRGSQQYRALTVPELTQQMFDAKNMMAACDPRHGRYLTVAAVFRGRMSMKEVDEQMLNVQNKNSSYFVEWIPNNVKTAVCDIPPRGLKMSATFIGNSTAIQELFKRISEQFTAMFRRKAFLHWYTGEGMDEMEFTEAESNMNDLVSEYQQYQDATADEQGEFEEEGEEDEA

Usually IC50 stands for the concentration that gives 50% inhibition. A lower IC50 goes with inhibition by little substance. Regarding `COc1ccc(CNc2c(-c3ccccc3O)nc3cccc(F)n23)cc1`, in the test on HeLa, the IC50 stood at 46 nM. Take `COc1ccc(CNc2c(-c3cc(Cl)cc(Cl)c3O)nc3ccccn23)cc1`: it took 4160 nM to reach half-maximal inhibition with HeLa (IC50). A word on the inhibition: it is the relative decrease from the control value, in per cent. Read a high inhibition as a strong effect. As to `COc1ccc(CNc2c(-c3ccccc3O)nc3cnccn23)cc1`, the values for the IC50 in the test on HeLa and on Tubulin were 37 nM and 7160 nM, respectively. On Tubulin (Sus scrofa), the inhibition stood at 41.1%. With `COc1ccc(CNc2c(-c3ccccc3O)nc3ccc(F)cn23)cc1`, the IC50 with HeLa was determined as 13 nM; at Tubulin, 3410 nM. For the same compound, the inhibition at Tubulin (Sus scrofa) turned out to be 72.2%. For the compound `COc1ccc(CNc2c(-c3cc([N+](=O)[O-])ccc3O)nc3ccccn23)cc1`, the IC50 in the test with HeLa came to 210 nM. Consider `COc1ccc(CNc2c(-c3ccccc3O)nc3ccccn23)cc1`, for which the IC50 was 15 nM with HeLa and 4350 nM on Tubulin. The same compound yielded an inhibition at Tubulin (Sus scrofa) of 66%.

Take `COc1ccc(CNc2c(-c3c(O)cc(OC)cc3OC)nc3ccccn23)cc1`: the 50% inhibitory concentration (IC50) with HeLa was above 10000 nM. For the compound `COc1ccc(Nc2c(-c3ccccc3O)nc3ccccn23)cc1`, the IC50 in the test on HeLa was above 10000 nM. `COc1ccc(CNc2c(-c3ccccc3NS(C)(=O)=O)nc3ccccn23)cc1`: in the test on HeLa, the IC50 was above 10000 nM.

The compound `COc1ccc(CCNc2c(-c3ccccc3O)nc3ccccn23)cc1` returned an IC50 in the test on HeLa of 8220 nM.

Consider `COc1ccc(CNc2c(-c3ccccc3O)nc3ccc(Br)cn23)cc1`, for which it took 810 nM to reach half-maximal inhibition in the test on HeLa (IC50). The compound `COc1ccc(CNc2c(-c3ccccc3NC(C)=O)nc3ccccn23)cc1` gave an IC50 with HeLa above 10000 nM. Regarding `COc1cc2c(c(OC)c1OC)-c1ccc(OC)c(=O)cc1[C@@H](NC(C)=O)CC2` [COLCHICINE], the concentration for half-maximal inhibition (IC50) in the test on HeLa was determined as 37 nM. `COc1ccc(CNc2c(-c3ccccc3OC)nc3ccccn23)cc1`: 230 nM corresponded to half-maximal inhibition in the test on HeLa (IC50).
